From ChEMBL document CHEMBL5107958, “Phosphoramidate Prodrugs Continue to Deliver, The Journey of Remdesivir (GS-5734) from RSV to SARS-CoV-2” (ACS Med Chem Lett, 2022)

Tests used:
[1] = tested on: SARS-CoV-2; assay: Potency index, ratio of EC50 of GS-441524 to EC50 of test compound for antiviral activity against SARS-CoV-2 infected in HAEC cells assessed as reduction in viral replication incubated for 1.5 hrs followed by virus removal upto 24 hrs and subsequent replacement of medium containing compound by RT-qPCR analysis; type: functional, Severe acute respiratory syndrome coronavirus 2; conditions: time <= 25.5 hrs
[2] = tested on: SARS-CoV-2; assay: Antiviral activity against SARS-CoV-2 infected in HAEC cells assessed as reduction in viral replication incubated for 1.5 hrs followed by virus removal upto 24 hrs and subsequent replacement of medium containing compound by RT-qPCR analysis; type: functional, organism-based; conditions: Severe acute respiratory syndrome coronavirus 2, HAEC

SMILES | Ratio [1] | EC50 [2] [nM]
CCC(CC)OC(=O)[C@H](C)N[P@](=O)(OC[C@H]1O[C@@](C#N)(c2ccc3c(N)ncnn23)[C@H](O)[C@@H]1O)Oc1ccccc1 | 11 | 48
N#C[C@@]1(c2ccc3c(N)ncnn23)O[C@H](CO)[C@@H](O)[C@H]1O [GS-441524] | – | 510
